Reference: patent US6569640B1, “Method of fractionation of biologically-derived materials using critical fluids” (Aphios Corporation, priority 1993, dated 2003)

Tested on: Bacillus subtilis
Assay: Antimicrobial disk diffusion assay
Assay type: cell-based
Details: disks containing 10 μg
Procedure: Microbial extracts were tested for antimicrobial activity by a disk diffusion assay. Diffusion of the metabolites into the agar creates a zone of growth inhibition around the disk if the organism is susceptible to the antimicrobial metabolite. Ten to 20 μl amounts of extract or extract fractions were applied to Whatman 3MM filter paper disks 7 mm in diameter. The disks were dried under vacuum overnight to evaporate the solvent. Bioassays were carried out with the target organism Bacillus subtilis. The target organisms were grown in nutrient broth (Difco), and adjusted to an A600 of 0.1. One hundred μl of the cell suspension was applied to the surface of a nutrient agar plate and spread uniformly with a sterile spreader. After the liquid had absorbed into the agar, the disks were placed on the surface, about 1 cm apart. The plates were incubated at 25-30° C. for 24-36 hours. Antimicrobial activity was indicated by a zone of inhibition around a disk where bacterial growth was prevented. […] In addition, positive and negative control disks were utilized. For the negative control, a disk which received only methanol was run in each test. […] For the positive control, disks containing the antimicrobial gentamycin (10 μg) were used.

In the case of gentamycin, the “zone of inhibition, positive control disk” value is reported as “showed zones of inhibition”.
